Assay results published in US20130273182A1, “A Herbal Extract for Treating Fatty Liver Disease and a Medication Thereof” (priority 2012, published 2013).

Experiment: DPPH free radical elimination test
Format: biochemical
Settings: 10 mg/ml sample, 0.1 mM DPPH, room temperature 30 minutes, OD 517 nm
Experimental: Trial (A): DPPH Free Radical Elimination Test Referring to TABLE 1, there are six groups (A0) to (A5) to test, wherein the group (A0) comprising 10 mg/ml of ascorbic acid, and other five groups comprising extract of a dry Andrographis paniculata sample, a dry Acanthopanax senticosus sample or a combination of dry Andrographis paniculata sample and dry Acanthopanax senticosus sample in various weight ratios respectively. The group (A1) is a liquid extract obtained by extracting 4 kg of dry Andrographis paniculata sample with 1 liter of 95% ethanol. The group (A2) is a liquid extract obtained by extracting 4 kg of dry Acanthopanax senticosus sample with 1 liter of 95% ethanol. The group (A3) is a liquid extract obtained by extracting 4 kg of dry Andrographis paniculata sample and dry Acanthopanax senticosus sample in a weight ratio of 1:1 with 1 liter of 95% ethanol. The group (A4) is a liquid extract obtained by extracting 4 kg of dry Andrographis paniculata and dry Acanthopanax senticosus in a weight ratio of 1:2 with 1 liter of 95% ethanol. The group (A5) is a liquid extract obtained by extracting 4 kg of dry Andrographis paniculata and dry Acanthopanax senticosus in a weight ratio of 1:3 with 1 liter of 95% ethanol. […] The 6 samples are analyzed in the DPPH free radical elimination ability. […] DPPH elimination rates of each sample are further calculated by using Formula I. [formula]

O=C1O[C@H]([C@@H](O)CO)C(O)=C1O [ascorbic acid]
Percentage of DPPH elimination (%): 96.4 ± 2.7%
